Experimental data published in US20260151403A1, “NEK7 DEGRADERS AND METHODS OF USE THEREOF” (Captor Therapeutics S.A., priority 2022, published 2026).

Experiments:
[1] = biological target: NEK7-HiBiT protein (Homo sapiens, UniProt Q8TDX7); test: NEK7-HiBiT degradation assay (Nano-Glo HiBiT Lytic Assay) in HEK293 NEK7-HiBiT cells; format: cell-based; settings: 24 h, conc. 0.1, 1 and 10 μM tested, concentration of the table values not stated, mean of 3 technical replicates
Summary of the method: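 HEK293 cells with CRISPR knock-in N-terminal HiBiT-tagged NEK7 exposed to compound for 24 h at 37 °C, 5% CO2. Residual NEK7-HiBiT was read as Nano-Glo HiBiT lytic luminescence and expressed as % of DMSO control across triplicates; compounds run at 0.1, 1 and 10 μM.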

[2] = biological target: T1, [NEK7]-[compound of formula (I)]-[CRBN/DDB1] complex (Homo sapiens, UniProt Q8TDX7+Q96SW2); test: AlphaLISA dose response ternary complex formation assay; format: binding; settings: 1 μM compound, normalized to maximum signal of Compound 2 (positive control) and DMSO background; for activation at 1 µM: read-out: Normalized AlphaLISA ternary complex average signal at 1 μM molecule
Summary of the method: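 Biotinylated NEK7 (200 nM) on streptavidin donor beads and 6×His-CRBN/Strep-DDB1 (200 nM) on anti-His acceptor beads, each at 40 μg/ml and preincubated 30 min, then mixed and added to compound in HBS pH 7.4, 0.1% Tween-20, 1 mM DTT, 2% DMSO. After 30 min at 25 °C, AlphaLISA signal was read (ex 680/em 615 nm) and normalised to DMSO background and maximal Compound 2 signal.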

[3] = biological target: T1, [NEK7]-[compound of formula (I)]-[CRBN/DDB1] complex; test: HTRF ternary complex assay; format: binding; settings: dose-response, 180 min at 25° C.; for EC50: read-out: HTRF ternary complex Average pEC50 by molecule (converted)
Summary of the method: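 Mix of 24 nM NEK7, 52.8 nM 6×His-CRBN/Strep-DDB1, 3 nM streptavidin-Eu cryptate and 6.67 nM anti-6×His-d2 in PPI Europium detection buffer with 1 mM DTT, dose-response compound, 0.5% DMSO, 180 min at 25° C. TR-FRET (665/620) read, normalized to DMSO background, Hill-slope fit gave EC50/pEC50.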

T1 sequence (Q8TDX7 whole entry): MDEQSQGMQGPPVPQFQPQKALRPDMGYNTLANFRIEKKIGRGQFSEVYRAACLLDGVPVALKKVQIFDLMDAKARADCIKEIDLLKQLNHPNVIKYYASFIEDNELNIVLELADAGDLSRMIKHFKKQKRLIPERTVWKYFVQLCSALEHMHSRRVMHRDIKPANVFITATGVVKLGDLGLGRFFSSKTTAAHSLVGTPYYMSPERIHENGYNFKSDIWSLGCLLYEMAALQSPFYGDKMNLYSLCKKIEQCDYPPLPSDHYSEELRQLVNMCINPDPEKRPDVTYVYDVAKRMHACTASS
T1 sequence (Q96SW2 whole entry): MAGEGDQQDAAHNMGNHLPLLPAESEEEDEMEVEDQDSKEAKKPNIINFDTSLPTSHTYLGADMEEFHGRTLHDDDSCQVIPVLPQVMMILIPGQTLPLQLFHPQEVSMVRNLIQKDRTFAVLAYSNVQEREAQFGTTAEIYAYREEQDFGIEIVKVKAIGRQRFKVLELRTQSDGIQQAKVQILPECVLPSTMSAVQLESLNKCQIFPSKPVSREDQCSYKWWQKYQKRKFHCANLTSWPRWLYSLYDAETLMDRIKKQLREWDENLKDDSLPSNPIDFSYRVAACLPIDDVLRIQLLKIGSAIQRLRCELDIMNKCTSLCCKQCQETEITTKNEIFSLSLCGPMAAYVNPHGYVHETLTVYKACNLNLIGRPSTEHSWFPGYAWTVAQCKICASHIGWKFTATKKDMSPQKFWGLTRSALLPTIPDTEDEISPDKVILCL
T1 sequence (Q16531 whole entry partner): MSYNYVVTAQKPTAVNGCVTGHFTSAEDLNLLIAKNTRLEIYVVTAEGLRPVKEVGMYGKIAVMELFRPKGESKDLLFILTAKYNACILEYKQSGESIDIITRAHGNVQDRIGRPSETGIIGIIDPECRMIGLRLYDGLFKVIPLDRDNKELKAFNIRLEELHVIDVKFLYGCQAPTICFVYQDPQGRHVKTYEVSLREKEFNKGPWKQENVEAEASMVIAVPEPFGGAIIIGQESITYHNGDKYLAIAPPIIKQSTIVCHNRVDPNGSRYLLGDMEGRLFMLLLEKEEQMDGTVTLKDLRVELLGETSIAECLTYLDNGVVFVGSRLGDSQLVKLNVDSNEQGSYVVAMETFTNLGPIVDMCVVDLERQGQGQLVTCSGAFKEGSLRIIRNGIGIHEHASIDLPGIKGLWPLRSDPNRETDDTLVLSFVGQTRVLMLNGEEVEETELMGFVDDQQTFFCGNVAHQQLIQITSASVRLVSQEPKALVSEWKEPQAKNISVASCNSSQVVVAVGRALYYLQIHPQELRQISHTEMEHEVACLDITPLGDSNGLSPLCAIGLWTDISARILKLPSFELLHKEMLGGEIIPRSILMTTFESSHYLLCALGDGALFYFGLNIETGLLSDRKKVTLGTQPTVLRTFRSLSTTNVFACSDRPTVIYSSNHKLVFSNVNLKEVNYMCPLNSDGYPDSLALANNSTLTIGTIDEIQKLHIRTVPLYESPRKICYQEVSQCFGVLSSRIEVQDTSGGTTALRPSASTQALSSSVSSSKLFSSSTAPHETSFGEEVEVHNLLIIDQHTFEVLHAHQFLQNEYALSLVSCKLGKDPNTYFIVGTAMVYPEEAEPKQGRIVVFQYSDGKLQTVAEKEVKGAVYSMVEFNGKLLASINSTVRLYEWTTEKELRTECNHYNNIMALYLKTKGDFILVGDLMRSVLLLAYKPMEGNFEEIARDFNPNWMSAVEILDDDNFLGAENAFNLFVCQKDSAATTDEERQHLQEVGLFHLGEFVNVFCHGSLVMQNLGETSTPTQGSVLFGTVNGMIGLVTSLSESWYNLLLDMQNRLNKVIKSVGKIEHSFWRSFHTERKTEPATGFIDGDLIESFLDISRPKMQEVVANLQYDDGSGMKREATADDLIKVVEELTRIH
Chain of NEK7-HiBiT protein (Q8TDX7 whole entry): as the sequence (Q8TDX7 whole entry) above
Chain of NEK7-HiBiT protein (Q96SW2 whole entry, further chain): as the sequence (Q96SW2 whole entry) above
Chain of NEK7-HiBiT protein (Q16531 whole entry partner): as the sequence (Q16531 whole entry partner) above

activation at 1 µM [2] | EC50 [3] | Compound | Levels of NEK7-HiBiT Protein (as a % of DMSO control) [1] | Normalized AlphaLISA ternary complex average signal at 1 μM molecule [2] | HTRF ternary complex Average pEC50 by molecule [3]
< 10% | > 3160 nM | O=C1CCC(N2Cc3c(csc3-c3ccccn3)C2=O)C(=O)N1 (stereo not drawn) [31(2), 3-(4-oxo-1-(pyridin-2-yl)-4H-thieno[3,4-c]pyrrol-5 (6H)-yl)piperidine-2,6-dione] | D (Levels of NEK7-HiBiT Protein ≥ 75%) | – | –
< 10% | > 3160 nM | O=C1CCCC(N2Cc3cc(C4CCCCN4)ccc3C2=O)C(=O)N1 (stereo not drawn) [Compound 65, 3-(1-oxo-5-(piperidin-2-yl)isoindolin-2-yl)azepane-2,7-dione] | C (Levels of NEK7-HiBiT Protein > 50% and <75%) | – | –
20 to 80% | 1000 to 3160 nM | O=C1CCC(N2C(=O)c3ccc(C4CCCCN4)cc3C2=O)C(=O)N1 (stereo not drawn) [Compound 1, 2-(2,6-dioxopiperidin-3-yl)-5-(piperidin-2-yl)isoindoline-1,3-dione] | A (Levels of NEK7-HiBiT Protein ≤ 25%) | – | –
– | – | 3-(5-((2R,6R)-6-butyltetrahydro-2H-pyran-2-yl)-1-oxoisoindolin-2-yl)piperidine-2,6-dione and 3-(5-((2S,6S)-6-butyltetrahydro-2H-pyran-2-yl)-1-oxoisoindolin-2-yl)piperidine-2,6-dione [69 Isomer 2] | B (Levels of NEK7-HiBiT Protein > 25% and ≤50%) | B (Normalized activity > 20% and <80%) | ++++ (7.0 > pEC50 > 6.5)
> 80% | 100 to 316 nM | COc1ccc(-c2ccc3c(c2)CN(C2CCC(=O)NC2=O)C3=O)nc1 (stereo not drawn) [25(2), 3-(5-(5-methoxypyridin-2-yl)-1-oxoisoindolin-2-yl)piperidine-2,6-dione] | A (Levels of NEK7-HiBiT Protein ≤ 25%) | – | –
20 to 80% | 316 to 1000 nM | O=C1CCC(N2Cc3cc(C4CCCCCN4)ccc3C2=O)C(=O)N1 (stereo not drawn) [Compound 62, 3-(5-(azepan-2-yl)-1-oxoisoindolin-2-yl)piperidine-2,6-dione] | B (Levels of NEK7-HiBiT Protein > 25% and ≤50%) | – | –
